The values that follow come from article PMC10992144, “Construction of fatty acid derivatives from rubber seed oil as α-glucosidase inhibitors based on rubber seed oil” (Bioresources and Bioprocessing, 2022).

Where two headings read alike, the source gives them in different places.

The target in assay [1] is T1, α-Glucosidase from recombinant yeast (Saccharomyces cerevisiae, UniProt P53341).
T1 construct: purchased Shanghai yuanye Bio-Technology Co. Ltd; host or cells: recombinant yeast
In words: biochemical. The format is biochemical. To be noted: for Inhibitory score: 1/IC50, Table 4, S4. On the procedure: Fatty acids and their derivates were diluted in 0.1 M, pH = 6.9 phosphate buffer with 0.5% (v/v) DMSO as cosolvent, to prepare […] sample solutions. 50 μL sample solution and 100 μL 0.5 U α-glucosidase (prepared in the same phosphate buffer) were added into 1.5-mL plastic tubes, incubated at 37 °C, 10 min. Then, 50 μL 5 mM α-PNPG (prepared in the same buffer) was added into the plastic tube, incubated for another 10 min at 37 °C. At the end, 1 M Na2CO3 was added to terminate the reaction.
The Inhibitory score measures the inhibitory intensity of each sample on α-glucosidase, calculated by 1/IC50. Data were subjected to the one-way ANOVA analysis by SPSS 23.0, shown as mean ± SD (n = 3).

For a further assay, the system named is α-glucosidase. To be noted: result in words; ref Paul et al. ([2010]); cited from earlier work.
Where [2] appears, read: 0.1 M phosphate buffer pH 6.9, 0.5% DMSO, 37 °C, α-PNPG, mean ± SD (n = 3), read-out: IC50.

T1 sequence (P53341 whole entry): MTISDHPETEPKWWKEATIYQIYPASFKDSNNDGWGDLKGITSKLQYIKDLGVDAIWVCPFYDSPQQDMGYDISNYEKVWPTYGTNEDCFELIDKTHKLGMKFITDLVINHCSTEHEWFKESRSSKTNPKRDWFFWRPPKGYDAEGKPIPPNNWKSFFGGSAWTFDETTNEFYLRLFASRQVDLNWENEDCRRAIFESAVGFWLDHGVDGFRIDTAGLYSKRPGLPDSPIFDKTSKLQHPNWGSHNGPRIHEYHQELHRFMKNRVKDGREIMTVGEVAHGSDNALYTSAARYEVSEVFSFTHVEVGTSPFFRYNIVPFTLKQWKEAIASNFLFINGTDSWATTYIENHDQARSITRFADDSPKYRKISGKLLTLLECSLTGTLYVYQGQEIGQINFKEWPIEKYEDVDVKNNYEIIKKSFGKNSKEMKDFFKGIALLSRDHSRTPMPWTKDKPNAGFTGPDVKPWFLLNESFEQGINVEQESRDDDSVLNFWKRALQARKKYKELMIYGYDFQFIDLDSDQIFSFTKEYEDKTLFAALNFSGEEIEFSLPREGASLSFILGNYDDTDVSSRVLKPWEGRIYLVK

In general, IC50 refers to the concentration at which inhibition is half-maximal. Turning to `CCCCC/C=C\CC(O)CCCCCCCCC(=O)O` (stereo not drawn) [10-HOA, 10-hydroxy-cis-12-octadecenoic acid], in assay [1], the IC50 is 0.39 ± 0.01 µM and the Inhibitory score came to 2.58. Regarding `CCCCCCCCC(O)CCCCCCCCC(=O)O` (stereo not shown) [10-HSA, 10-hydroxystearic acid], the IC50 in assay [1] (setting [2]) came to 1.71 ± 0.02 µM. Further, the Inhibitory score in assay [1] came out at 0.58. Consider `CCCCCCCCC(O)/C=C/CCCCCCC(=O)O` (stereo not shown) [10-hydroxy-8 (E)-octadecenoic acid], for which the “inhibition of α-glucosidase” value in the assay on α-glucosidase was “useful inhibitor”.

Turning to `CCCCCCCC/C=C\CCCCCCCC(=O)OCCCC` [Butyl, butyl oleate], the IC50 in assay [1] (setting [2]) was determined as 2.34 ± 0.11 µM. In addition, the Inhibitory score in assay [1] came to 0.43. On to `CCCCCCCCCC(=O)O` [C10:0, capric acid], for which the concentration for half-maximal inhibition (IC50) in assay [1] (setting [2]) worked out at 114 ± 2.37 µM. Same read-out and setting: to `CCCCCCCCCCCC(=O)O` [C12:0, lauric acid] belongs 135 ± 6.43 µM; to `CCCCCCCCCCCCCC(=O)O` [C14:0, myristic acid], 56.2 ± 2.81 µM; to `CCCCCCCCCCCCCCCC(=O)O` [C16:0, palmitic acid], 13.97 ± 0.01 µM. Turning to `CCCCC/C=C\C/C=C\CCCCCCCC(=O)O` [C18:2, linoleic acid], the IC50 in assay [1] worked out at 0.6 ± 0.01 µM.

Regarding `CC/C=C\C/C=C\C/C=C\CCCCCCCC(=O)O` [C18:3, α-linolenic acid], the IC50 in assay [1] was determined as 0.54 ± 0.01 µM. `CCCCCCCC/C=C\CCCCCCCC(=O)OCCCCCC` [Hexyl, hexyl oleate]: in assay [1] (setting [2]), the IC50 worked out at 4.16 ± 0.21 µM. Besides, the Inhibitory score in assay [1] is reported as 0.24. The like results for `CCCCCCCC/C=C\CCCCCCCC(=O)OC(C)C` [Isopropyl, isopropyl oleate] were, in that order, 0.6 ± 0.01 µM and 1.67. Turning to `CCCCCCCC/C=C\CCCCCCCC(=O)OCCCCCCCC` [Octyl, octyl oleate], the IC50 in assay [1] (setting [2]) worked out at 3.25 ± 0.08 µM. Also, the Inhibitory score in assay [1] amounted to 0.31. Take `CCCCCCCC/C=C\CCCCCCCC(=O)OCCCCC` [Pentyl, amyl oleate]: the IC50 in assay [1] (setting [2]) came to 3.21 ± 0.17 µM. For the same compound, in assay [1], the Inhibitory score amounted to 0.31. The like results for `CCCCCCCC/C=C\CCCCCCCC(=O)OCCC` [Propyl, propyl oleate] were, in that order, 1.75 ± 0.04 µM and 0.57. Turning to `CCCCCCCC/C=C\CCCCCCCC(=O)O` [cis-C18:1, Oleic acid], in assay [1] (setting [2]), the IC50 worked out at 0.81 ± 0.04 µM. In assay [1] (listed as OA), the Inhibitory score is given as 1.23.
